Assay results reported in US9309242B2, “Substituted pyrido[2,3-b]pyrazines as FGFR kinase inhibitors” (priority 2011, dated 2016).

Legend:
[1] = target: T1, Ba/F3-KDR-transfected cells (Homo sapiens, UniProt P35968); experiment: Ba/F3-KDR (minus IL3) cellular proliferation assay, Alamar Blue; assay type: cell-based
T1 construct: BAF3-KDR (MIN IL3) pIC50; other: minus IL3
How it was run: (§1)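 Cells grown with test compound at 37° C and 5% CO2 for 24 hours were given a resazurin/ferricyanide/ferrocyanide reagent for 4 hours before fluorescence (540/590 nm) was recorded.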

[2] = test system: Ba/F3-KDR-transfected cells; experiment: Ba/F3-KDR (plus IL3) cellular proliferation assay, counterscreen with 10 ng/ml murine IL3; assay type: cell-based; settings: plus IL3 (10 ng/ml murine IL3, counterscreen); read-out: BAF3-KDR (PLUS IL3) pIC50 (converted)
How it was run: as §1

T1 sequence (P35968 whole entry, change not shown): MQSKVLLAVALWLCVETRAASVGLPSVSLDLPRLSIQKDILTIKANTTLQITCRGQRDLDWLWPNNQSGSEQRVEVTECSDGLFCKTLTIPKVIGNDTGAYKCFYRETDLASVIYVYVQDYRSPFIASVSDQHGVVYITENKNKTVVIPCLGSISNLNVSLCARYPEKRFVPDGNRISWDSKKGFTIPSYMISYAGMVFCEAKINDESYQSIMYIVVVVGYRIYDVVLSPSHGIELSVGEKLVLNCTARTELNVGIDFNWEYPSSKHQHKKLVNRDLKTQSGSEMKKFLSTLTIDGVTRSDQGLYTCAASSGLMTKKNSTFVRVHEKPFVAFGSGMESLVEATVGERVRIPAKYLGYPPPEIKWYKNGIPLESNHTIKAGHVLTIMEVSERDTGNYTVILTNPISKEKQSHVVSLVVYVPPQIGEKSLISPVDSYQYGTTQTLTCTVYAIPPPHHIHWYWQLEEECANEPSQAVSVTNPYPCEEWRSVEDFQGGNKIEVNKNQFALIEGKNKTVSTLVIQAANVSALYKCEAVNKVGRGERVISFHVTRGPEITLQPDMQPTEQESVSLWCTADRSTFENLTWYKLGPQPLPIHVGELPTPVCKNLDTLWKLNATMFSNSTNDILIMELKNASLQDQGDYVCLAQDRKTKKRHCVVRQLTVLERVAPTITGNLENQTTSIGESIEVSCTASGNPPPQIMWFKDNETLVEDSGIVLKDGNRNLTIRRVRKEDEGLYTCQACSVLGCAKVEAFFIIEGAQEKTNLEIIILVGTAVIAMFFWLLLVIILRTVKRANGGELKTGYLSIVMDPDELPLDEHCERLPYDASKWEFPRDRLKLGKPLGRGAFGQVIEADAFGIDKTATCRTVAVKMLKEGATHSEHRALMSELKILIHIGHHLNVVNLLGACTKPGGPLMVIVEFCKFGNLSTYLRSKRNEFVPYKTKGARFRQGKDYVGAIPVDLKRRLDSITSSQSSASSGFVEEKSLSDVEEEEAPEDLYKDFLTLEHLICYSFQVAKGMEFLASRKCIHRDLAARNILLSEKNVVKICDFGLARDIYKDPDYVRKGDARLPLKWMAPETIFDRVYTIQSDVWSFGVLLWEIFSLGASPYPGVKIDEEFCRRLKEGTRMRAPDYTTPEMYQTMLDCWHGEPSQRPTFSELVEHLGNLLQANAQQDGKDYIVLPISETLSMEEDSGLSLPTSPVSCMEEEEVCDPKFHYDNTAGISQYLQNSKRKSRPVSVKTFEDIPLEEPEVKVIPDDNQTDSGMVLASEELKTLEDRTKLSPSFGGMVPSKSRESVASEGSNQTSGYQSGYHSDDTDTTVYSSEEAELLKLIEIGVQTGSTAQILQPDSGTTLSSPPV

Row | SMILES | BAF3-KDR (MIN IL3) pIC50 [1] | IC50 [2] | melting point
1 | COc1cc(OC)c(F)c(N(CCNC2COC2)c2ccc3ncc(-c4cnn(C)c4)nc3n2)c1F (single isomer, unassigned) [Compound 162] | 6.61 | > 10 µM | 183 °C
2 | COc1cc(/N=c2\ccc3ncc(-c4cnn(C)c4)nc3n2CC2CCOC2)c(F)c(OC)c1 (single isomer, unassigned) [Compound 169] | 6.40 | > 10 µM | 80 °C
3 | COc1cc(/N=c2\ccc3ncc(-c4cnn(CC(C)(C)O)c4)nc3n2CC(C)(C)O)c(F)c(OC)c1 (single isomer, unassigned) [Compound 207] | 6.11 | > 10 µM | 154 °C
4 | COc1cc(OC)c(F)c(N(CC2CCC(=O)N2CCO)c2ccc3ncc(-c4cnn(C)c4)nc3n2)c1 (single isomer, unassigned) [Compound 218] | 5.64 | > 10 µM | 130 °C
5 | COc1cc(OC)c(F)c(/N=c2\ccc3ncc(-c4cnn(C)c4)nc3n2CC2CCOC2)c1F (stereo not shown) [Compound 154] | 6.43 | > 10 µM | 226 °C
6 | COc1cc(OC)c(F)c(/N=c2\ccc3ncc(-c4cnn(C)c4)nc3n2CCN(C2COC2)C2COC2)c1F [Compound 164] | 6.86 | > 10 µM | 218 °C
7 | COc1cc(OC)c(F)c(N(CC#N)c2ccc3ncc(-c4cnn(C)c4)nc3n2)c1F [Compound 173] | 5.78 | > 10 µM | 250 °C
8 | COc1cc(OC)cc(N(Cc2noc(C)n2)c2ccc3ncc(-c4cnn(C)c4)nc3n2)c1 [Compound 186] | 5.20 | > 10 µM | 177 °C
9 | COc1cc(OC)cc(N(Cc2nnc(N)o2)c2ccc3ncc(-c4cnn(C)c4)nc3n2)c1 [Compound 188] | 5.63 | > 10 µM | 246 °C
10 | COc1cc(OC)c(F)c(N(CC2CCC(=O)N2CCO)c2ccc3ncc(-c4cnn(C)c4)nc3n2)c1 (stereo not shown) [Compound 194] | 5.18 | > 10 µM | 102 °C
11 | COc1cc(OC)cc(N(Cc2ncc[nH]2)c2ccc3ncc(-c4ccn(C)c4)nc3n2)c1 [Compound 198] | 6.68 | > 10 µM | 
12 | COc1cc(OC)c(F)c(N(Cc2ncc[nH]2)c2ccc3ncc(-c4ccccc4)nc3n2)c1 [Compound 200] | 5.99 | > 10 µM | 
13 | COc1cc(OC)cc(N(Cc2ncc[nH]2)c2ccc3ncc(-c4ccncc4)nc3n2)c1 [Compound 202] | 5.24 | > 10 µM | 
14 | COc1cc(OC)cc(N(Cc2nncn2CCO)c2ccc3ncc(-c4cnn(C)c4)nc3n2)c1 [Compound 204] | <5 | > 10 µM | 
15 | COc1cc(OC)cc(N(Cc2ncn(CCO)n2)c2ccc3ncc(-c4cnn(C)c4)nc3n2)c1 [Compound 205] | 5.45 | > 10 µM | 
16 | CCOCc1c[nH]c(CN(c2ccc3ncc(-c4cnn(C)c4)nc3n2)c2cc(OC)cc(OC)c2F)n1 [Compound 206] | 5.84 | > 10 µM | 
17 | COc1cc(OC)c(F)c(N(Cc2ncc[nH]2)c2ccc3ncc(-c4cnn(C(CO)CCl)c4)nc3n2)c1 (stereo not shown) [Compound 209] | 6.57 | > 10 µM | 
18 | COc1cc(OC)c(F)c(N(Cc2ncc[nH]2)c2ccc3ncc(-c4ccncc4)nc3n2)c1 [Compound 211] | 5.82 | > 10 µM | 
19 | COc1cc(OC)cc(N(CCO)c2ccc3ncc(-c4ccncc4)nc3n2)c1 [Compound 213] | 5.01 | > 10 µM | 

Row | SMILES | BAF3-KDR (MIN IL3) pIC50 [1] | IC50 [2] | melting point
20 | COC(=O)CN(c1ccc2ncc(-c3cnn(C)c3)nc2n1)c1cc(OC)cc(OC)c1F [Compound 214] | 5.31 | > 10 µM | 
21 | COc1cc(OC)c(F)c(N(Cc2ncc[nH]2)c2ccc3ncc(N4CCOCC4)nc3n2)c1F [Compound 215] | 5.91 | > 10 µM | 
22 | COc1cc(OC)cc(N(Cc2nnco2)c2ccc3ncc(-c4cnn(C)c4)nc3n2)c1 [Compound 217] | 5.18 | > 10 µM | 240 °C
23 | COc1cc(OC)c(F)c(N(Cc2nc(OC)cc(OC)n2)c2ccc3ncc(-c4cnn(C)c4)nc3n2)c1 [Compound 220] | 5.22 | > 10 µM | 
24 | COc1cc(OC)c(F)c(N(CCNC2COC2)c2ccc3ncc(-c4cnn(C)c4)nc3n2)c1 [Compound 221] | 6.11 | > 10 µM | 
25 | COc1cc(OC)c(F)c(N(CCN(C2COC2)C2COC2)c2ccc3ncc(-c4cnn(C)c4)nc3n2)c1 [Compound 222] | 5.68 | > 10 µM | 
26 | CCn1cc(-c2cnc3ccc(N(Cc4ncc[nH]4)c4cc(OC)cc(OC)c4F)nc3n2)cn1 [Compound 223] | 6.81 | > 10 µM | 
27 | COc1cc(OC)c(F)c(N(CC(=O)c2cnn(C)c2)c2ccc3ncc(-c4cnn(C)c4)nc3n2)c1 [Compound 225] | 5.17 | > 10 µM | 
28 | COc1cc(OC)cc(N(Cc2ncc[nH]2)c2ccc3ncc(-c4cnn(C5CCNCC5)c4)nc3n2)c1 [Compound 227] | 5.79 | > 10 µM | 
29 | COc1cc(OC)cc(N(Cc2n[nH]c(=O)o2)c2ccc3ncc(-c4cnn(C)c4)nc3n2)c1 [Compound 229] | <5 | > 10 µM | 232 °C
30 | COc1cc(OC)c(F)c(N(CC(=O)NCCO)c2ccc3ncc(-c4cnn(C)c4)nc3n2)c1 [Compound 230] | 5.04 | > 10 µM | 258 °C
31 | COc1cc(OC)c(F)c(N(CC(=O)O)c2ccc3ncc(-c4cnn(C)c4)nc3n2)c1 [Compound 231] | <5 | > 10 µM | > 260 °C
32 | COc1cc(OC)c(F)c(N(Cc2nc(CO)c[nH]2)c2ccc3ncc(-c4cnn(C)c4)nc3n2)c1 [Compound 232] | 5.83 | > 10 µM | 
33 | COc1cc(OC)c(F)c(N(CCO)c2ccc3ncc(-c4cnn(CCO)c4)nc3n2)c1 [Compound 233] | 5.90 | > 10 µM | 194 °C
34 | COc1cc(OC)c(F)c(N(Cc2nc(Br)c[nH]2)c2ccc3ncc(-c4cnn(C)c4)nc3n2)c1 [Compound 238] | 6.46 | > 10 µM | 
35 | COc1cc(OC)c(F)c(N(Cc2ncc[nH]2)c2ccc3ncc(-c4cnn(CC(C)(C)O)c4)nc3n2)c1 [Compound 240] | 6.89 | > 10 µM | 
36 | COc1cc(OC)c(F)c(N(CCNC(C)=O)c2ccc3ncc(-c4cnn(C)c4)nc3n2)c1 [Compound 242] | 5.49 | > 10 µM | 
37 | COc1cc(/N=c2\ccc3ncc(-c4cnn(C)c4)nc3n2CC2CCC(=O)N2)cc(OC)c1 (stereo not shown) [Compound 248] | 5.76 | > 10 µM | 
38 | COc1cc(OC)c(F)c(N(Cc2n[nH]c(=O)o2)c2ccc3ncc(-c4cnn(C)c4)nc3n2)c1 [Compound 284] | <5 | > 10 µM | 
